According to patent US6737383B1, “Herbicidal oxadiazolidines” (priority 1999, dated 2004):

Columns and labels:
fall panicum = experiment: Test C postemergence fall panicum; format: in vivo, Panicum dichotomiflorum; details: 0 to 100 scale, 0 no effect, 100 complete control
Procedure: (§1) Compounds evaluated in this test were formulated in a non-phytotoxic solvent mixture which included a surfactant and applied to plants that were grown for various periods of time before treatment (postemergence application). A mixture of sandy loam soil and greenhouse potting mix in a 60:40 ratio was used for the postemergence test.
(§2) Plantings of these crops and weed species were adjusted to produce plants of appropriate size for the postemergence test. All plant species were grown using normal greenhouse practices. Crop and weed species include arrowleaf sida (Sida rhombifolia), barnyardgrass (Echinochloa crus-galli), cocklebur (Xanthium strumarium), common ragweed (Ambrosia elatior), corn (Zea mays), cotton (Gossypium hirsutum), eastern black nightshade (Solanum ptycanthum), fall panicum (Panicum dichotomiflorum), field bindweed (Convolvulus arvensis), giant foxtail (Setaria faberii), hairy beggarticks (Bidens pilosa), ivyleaf morningglory (Ipomoea hederacea), johnsongrass (Sorghum halepense), ladysthumb smartweed (Polygonum persicaria), lambsquarters (Chenopodium album), large crabgrass (Digitaria sanguinalis), purple nutsedge (Cyperus rotundus), redroot pigweed (Amaranthus retroflexus), soybean (Glycine max), surinam grass (Brachiaria decumbens), velvetleaf (Abutilon theophrasti) and wild poinsettia (Euphorbia heterophylla).
(§3) Treated plants and untreated controls were maintained in a greenhouse for approximately 14, to 21 days, after which all treated plants were compared to untreated controls and visually evaluated. Plant response ratings, summarized in Table C, were based upon a 0 to 100 scale where 0 was no effect and 100 was complete control. A dash response (−) means no test result.

ivyleaf morningglory = experiment: Test C postemergence ivyleaf morningglory; format: in vivo, Ipomoea hederacea; details: 0 to 100 scale, 0 no effect, 100 complete control
Procedure: as §1, §2, §3

johnsongrass = experiment: Test C postemergence johnsongrass; format: in vivo, Sorghum halepense; details: 0 to 100 scale, 0 no effect, 100 complete control
Procedure: as §1, §2, §3

purple nutsedge = experiment: Test C postemergence purple nutsedge; format: in vivo, Cyperus rotundus; details: 0 to 100 scale, 0 no effect, 100 complete control
Procedure: as §1, §2, §3

lambsquarters = experiment: Test E lambsquarters; format: in vivo, Chenopodium album; details: Postemergence
Procedure: (§4) Compounds evaluated in this test were formulated in a non-phytotoxic solvent mixture which included a surfactant and applied to plants that were in the 1- to 4-leaf stage (postemergence application). A mixture of sandy loam soil and greenhouse potting mix in a 60:40 ratio was used for the postemergence test.
(§5) Plantings of these crops and weed species were adjusted to produce plants of appropriate size for the postemergence test. All plant species were grown using normal greenhouse practices. Crop and weed species include annual bluegrass (Poa annua), blackgrass (Alopecurus myosuroides), black nightshade (Solanum nigra), chickweed (Stellaria media), common poppy (Papaver rhoeas), deadnettle (Lamium amplexicaule), downy brome (Bromus tectorum), field violet (Viola arvensis), galium (Galium aparine), green foxtail (Setaria viridis), Italian ryegrass (Lolium multiflorum), jointed goatgrass (Aegilops cylindrica), kochia (Kochia scoparia), lambsquarters (Chenopodium album), littleseed canarygrass (Phalaris minor), rape (Brassica napus), redroot pigweed (Amaranthus retroflexus), Russian thistle (Salsola kali), scentless chamomile (Matricaria inodora), spring barley (Hordeum vulgare), sugar beet (Beta vulgaris), sunflower (Helianthus annuus), ivyleaf speedwell (Veronica hederaefolia), spring wheat (Triticum aestivum), winter wheat (Triticum aestivum), wild buckwheat (Polygonum convolvulus), wild mustard (Sinapis arvensis), wild oat (Avena fatua), windgrass (Apera spica-venti) and winter barley (Hordeum vulgare).
(§6) Treated plants and untreated controls were maintained in a greenhouse for approximately 21 to 28 days, after which all treated plants were compared to untreated controls and visually evaluated. […] A dash response (-) means no test result.

sunflower = experiment: Test E sunflower; format: in vivo, Helianthus annuus; details: Postemergence
Outline: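 Visual evaluation versus untreated controls after about 21 to 28 days in the greenhouse. Compound was in a surfactant-containing non-phytotoxic solvent; postemergence plants were treated at the 1- to 4-leaf stage, grown in a 60:40 sandy loam and potting mix blend.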

wild mustard = experiment: Test E wild mustard; format: in vivo, Sinapis arvensis; details: Postemergence
Procedure: […] A mixture of sandy loam soil and greenhouse potting mix in a 60:40 ratio was used for the postemergence test.
as §5, §6

wild oat = experiment: Test E wild oat; format: in vivo, Avena fatua; details: Postemergence
Procedure: as §4, §5, §6

windgrass = experiment: Test E windgrass; format: in vivo, Apera spica-venti; details: Postemergence, Rate 62 g/ha; 0 to 100 scale
Procedure: as §4
Plantings of these crops and weed species were adjusted to produce plants of appropriate size for the postemergence test. All plant species were grown using normal greenhouse practices. […]
Treated plants and untreated controls were maintained in a greenhouse for approximately 21 to 28 days, after which all treated plants were compared to untreated controls and visually evaluated. […]

annual bluegrass = experiment: Test E annual bluegrass; format: in vivo, Poa annua; details: Preemergence
jointed goatgrass = experiment: Test E jointed goatgrass; format: in vivo, Aegilops cylindrica; details: Preemergence
littleseed canarygrass = experiment: Test E littleseed canarygrass; format: in vivo, Phalaris minor; details: Preemergence
rape = experiment: Test E rape; format: in vivo, Brassica napus; details: Preemergence
sugar beet = experiment: Test E sugar beet; format: in vivo, Beta vulgaris; details: Preemergence
velvetleaf = experiment: Test A velvetleaf; format: in vivo, Abutilon theophrasti; details: 0 to 10 scale where 0 is no effect and 10 is complete control
Procedure: Seeds of barnyardgrass (Echinochloa crus-galli), crabgrass (Digitaria spp.), morningglory (Ipomoea spp.), and velvetleaf (Abutilon theophrasti) were planted into a sandy loam soil and treated preemergence by soil drench with test chemicals formulated in a non-phytotoxic solvent mixture which includes a surfactant At the same time, these crop and weed species were also treated postemergence sprayed to runoff, with test chemicals formulated in the same manner.
Plants ranged in height from two to eighteen cm and were in the one to two leaf stage for the postemergence treatment. Treated plants and untreated controls were maintained in a greenhouse for approximately eleven days, after which all treated plants were compared to untreated controls and visually evaluated for injury. Plant response ratings, summarized in Table A, are based on a 0 to 10 scale where 0 is no effect and 10 is complete control.

[1] = Rate 250 g/ha, 0 to 100 scale (0 no effect, 100 complete control)
[2] = Rate 62 g/ha, 0 to 100 scale, 0 no effect, 100 complete control
[3] = Rate 125 g/ha, 0 to 100 scale (0 no effect, 100 complete control)
[4] = Rate 500 g/ha, 0 to 100 scale, 0 no effect, 100 complete control
[5] = Rate 500 g/ha, 0 to 100 scale where 0 is no effect and 100 is complete control

## CCn1c(=O)on(C(=O)N(c2ccc(F)cc2)C(C)C)c1=O [Compound 107]
Fall panicum; Rate 140 g/ha
  Plant response rating Fall panicum: 50
Fall panicum; Rate 280 g/ha
  Plant response rating Fall panicum: 60
Fall panicum; Rate 560 g/ha
  Plant response rating Fall panicum: 85
Fall panicum; Rate 1120 g/ha
  Plant response rating Fall panicum: 85
Ivyleaf morningglory; Rate 140 g/ha
  Plant response rating I. morningglory: 10
Ivyleaf morningglory; Rate 280 g/ha
  Plant response rating I. morningglory: 30
Ivyleaf morningglory; Rate 560 g/ha
  Plant response rating I. morningglory: 30
Ivyleaf morningglory; Rate 1120 g/ha
  Plant response rating I. morningglory: 95
johnsongrass; Rate 140 g/ha
  Plant response rating Johnsongrass: 35
johnsongrass; Rate 280 g/ha
  Plant response rating Johnsongrass: 50
johnsongrass; Rate 560 g/ha
  Plant response rating Johnsongrass: 90
johnsongrass; Rate 1120 g/ha
  Plant response rating Johnsongrass: 90
Purple nutsedge; Rate 140 g/ha
  Plant response rating, Purple nutsedge: 0
Purple nutsedge; Rate 280 g/ha
  Plant response rating, Purple nutsedge: 0
Purple nutsedge; Rate 560 g/ha
  Plant response rating, Purple nutsedge: 10
Purple nutsedge; Rate 1120 g/ha
  Plant response rating, Purple nutsedge: 10
lambsquarters; Rate 62 g/ha, 0 to 100 scale
  Plant response rating, Lambsquarters: 15
lambsquarters; Rate 125 g/ha, 0 to 100 scale
  Plant response rating, Lambsquarters: 15
lambsquarters; [1]
  Plant response rating, Lambsquarters: 5
sunflower; Rate 62 g/ha, 0 to 100 scale
  Plant response rating, Sunflower: 10
sunflower; Rate 125 g/ha, 0 to 100 scale
  Plant response rating, Sunflower: 20
sunflower; [1]
  Plant response rating, Sunflower: 30
Wild mustard; Rate 62 g/ha, 0 to 100 scale
  Plant response rating, Wild mustard: 5
Wild mustard; Rate 125 g/ha, 0 to 100 scale
  Plant response rating, Wild mustard: 90
Wild mustard; [1]
  Plant response rating, Wild mustard: 40
Wild oat; Rate 62 g/ha, 0 to 100 scale
  Plant response rating, Wild oat: 5
Wild oat; Rate 125 g/ha, 0 to 100 scale
  Plant response rating, Wild oat: 5
Wild oat; [1]
  Plant response rating, Wild oat: 0
windgrass
  Plant response rating, Windgrass: 85
Annual bluegrass; [2]
  Plant response rating, Annual bluegras: 70
Annual bluegrass; [3]
  Plant response rating, Annual bluegras: 80
Annual bluegrass; Rate 250 g/ha, 0 to 100 scale
  Plant response rating, Annual bluegras: 85
Jointed goatgrass; [2]
  Plant response rating, Jointed goatgra: 40
Jointed goatgrass; [3]
  Plant response rating, Jointed goatgra: 50
Jointed goatgrass; Rate 250 g/ha, 0 to 100 scale
  Plant response rating, Jointed goatgra: 50
Littleseed canarygrass; [2]
  Plant response rating, LS canarygrass: 50
Littleseed canarygrass; [3]
  Plant response rating, LS canarygrass: 80
Littleseed canarygrass; Rate 250 g/ha, 0 to 100 scale
  Plant response rating, LS canarygrass: 80
rape; [2]
  Plant response rating, Rape: 60
rape; [3]
  Plant response rating, Rape: 70
rape; Rate 250 g/ha, 0 to 100 scale
  Plant response rating, Rape: 100
Sugar beet; [2]
  Plant response rating, Sugar beet: 70
Sugar beet; [3]
  Plant response rating, Sugar beet: 100
Sugar beet; Rate 250 g/ha, 0 to 100 scale
  Plant response rating, Sugar beet: 100

## CCn1c(=O)on(C(=O)N(c2ccc(F)cc2F)C(C)C)c1=O [Compound 116]
Fall panicum; Rate 140 g/ha
  Plant response rating Fall panicum: 10
Fall panicum; Rate 280 g/ha
  Plant response rating Fall panicum: 60
Fall panicum; Rate 560 g/ha
  Plant response rating Fall panicum: 85
Fall panicum; Rate 1120 g/ha
  Plant response rating Fall panicum: 90
Ivyleaf morningglory; Rate 140 g/ha
  Plant response rating I. morningglory: 0
Ivyleaf morningglory; Rate 280 g/ha
  Plant response rating I. morningglory: 0
Ivyleaf morningglory; Rate 560 g/ha
  Plant response rating I. morningglory: 0
Ivyleaf morningglory; Rate 1120 g/ha
  Plant response rating I. morningglory: 20
johnsongrass; Rate 140 g/ha
  Plant response rating Johnsongrass: 10
johnsongrass; Rate 280 g/ha
  Plant response rating Johnsongrass: 40
johnsongrass; Rate 560 g/ha
  Plant response rating Johnsongrass: 60
johnsongrass; Rate 1120 g/ha
  Plant response rating Johnsongrass: 80
Purple nutsedge; Rate 140 g/ha
  Plant response rating, Purple nutsedge: 0
Purple nutsedge; Rate 280 g/ha
  Plant response rating, Purple nutsedge: 0
Purple nutsedge; Rate 560 g/ha
  Plant response rating, Purple nutsedge: 10
Purple nutsedge; Rate 1120 g/ha
  Plant response rating, Purple nutsedge: 10
lambsquarters; Rate 62 g/ha, 0 to 100 scale
  Plant response rating, Lambsquarters: 20
lambsquarters; Rate 125 g/ha, 0 to 100 scale
  Plant response rating, Lambsquarters: 30
lambsquarters; [1]
  Plant response rating, Lambsquarters: 0
lambsquarters; [4]
  Plant response rating, Lambsquarters: 0
sunflower; Rate 62 g/ha, 0 to 100 scale
  Plant response rating, Sunflower: 20
sunflower; Rate 125 g/ha, 0 to 100 scale
  Plant response rating, Sunflower: 0
sunflower; [1]
  Plant response rating, Sunflower: 0
sunflower; [4]
  Plant response rating, Sunflower: 0
Wild mustard; Rate 62 g/ha, 0 to 100 scale
  Plant response rating, Wild mustard: 70
Wild mustard; Rate 125 g/ha, 0 to 100 scale
  Plant response rating, Wild mustard: 20
Wild mustard; [1]
  Plant response rating, Wild mustard: 40
Wild mustard; [4]
  Plant response rating, Wild mustard: 40
Wild oat; Rate 62 g/ha, 0 to 100 scale
  Plant response rating, Wild oat: 20
Wild oat; Rate 125 g/ha, 0 to 100 scale
  Plant response rating, Wild oat: 0
Wild oat; [1]
  Plant response rating, Wild oat: 30
Wild oat; [4]
  Plant response rating, Wild oat: 70
windgrass
  Plant response rating, Windgrass: 70
Annual bluegrass; [3]
  Plant response rating, Annual bluegras: 60
Annual bluegrass; Rate 250 g/ha, 0 to 100 scale
  Plant response rating, Annual bluegras: 85
Annual bluegrass; [5]
  Plant response rating, Annual bluegras: 100
Jointed goatgrass; [3]
  Plant response rating, Jointed goatgra: 30
Jointed goatgrass; Rate 250 g/ha, 0 to 100 scale
  Plant response rating, Jointed goatgra: 100
Jointed goatgrass; [5]
  Plant response rating, Jointed goatgra: 65
Littleseed canarygrass; [3]
  Plant response rating, LS canarygrass: 70
Littleseed canarygrass; Rate 250 g/ha, 0 to 100 scale
  Plant response rating, LS canarygrass: 80
Littleseed canarygrass; [5]
  Plant response rating, LS canarygrass: 100
rape; [3]
  Plant response rating, Rape: 60
rape; Rate 250 g/ha, 0 to 100 scale
  Plant response rating, Rape: 100
rape; [5]
  Plant response rating, Rape: 100
Sugar beet; [3]
  Plant response rating, Sugar beet: 50
Sugar beet; Rate 250 g/ha, 0 to 100 scale
  Plant response rating, Sugar beet: 85
Sugar beet; [5]
  Plant response rating, Sugar beet: 95

## CCOC(=O)Cn1c(=O)on(C(=O)N(c2ccc(F)cc2)C(C)C)c1=O [Compound 128]
velvetleaf; Postemergence, Rate 1000 g/ha
  Plant response rating, Velvetleaf: 0
velvetleaf; Pre-emergence, Rate 2000 g/ha
  Plant response rating, Velvetleaf: 0

## Cc1ccccc1Cn1c(=O)on(C(=O)N(c2ccc(Cl)cc2)C(C)C)c1=O [Compound 136]
velvetleaf; Postemergence, Rate 1000 g/ha
  Plant response rating, Velvetleaf: 2
velvetleaf; Pre-emergence, Rate 2000 g/ha
  Plant response rating, Velvetleaf: 0
